Reference: patent publication US20090018201A1, “Method of Combating Bugs” (BASF Aktiengesellschaft, priority 2005, published 2009)

Columns and labels:
Assay in all cases: Field test, activity against bugs on treated host plants
Assay type in all cases: in vivo
[1] = tested on: Halticus bracteatus (Garden fleahopper); conditions: crop Alfalfa; rate 300 ppm (the 1st table r11); field plots, spray
Procedure: (§1) Host plants (such as rice, wheat, and cabbage) were treated with 50, 150 or 300 ppm of a compound of formula I. Treatments were diluted in water and applied at 400 to 600 liters/hectare to experimental plots using standard application equipment (such as a backpack sprayer). Each treatment was replicated 3 times and comprised an area of approximately 30 square meters. Pre-treatment evaluations of the number of live insects per plant were made one day prior to first treatment. Post-treatment evaluations were made at 5 to 7 day intervals. Field studies were conducted under ambient conditions during normal growing season.

Paromius exiguus = conditions: crop Rice; rate 300 ppm (the 1st table r5); field plots, spray
Procedure: as §1

[2] = tested on: Leptocorisa corbetti (Leaf-footed bug); conditions: crop Rice; rate 50 ppm (the 1st table r9); field plots, spray
Procedure: as §1

[3] = tested on: Eurydema ornatum (Cabbage bug); conditions: crop Cabbage; rate 50 ppm (the 1st table r13); field plots, spray
Procedure: as §1

[4] = tested on: Stenotus rubrovittatus (Sorghum plant bug); conditions: crop Rice; rate 50 ppm (the 1st table r4); field plots, spray
Procedure: as §1

[5] = tested on: Trigonotylus coelestialum (Rice leaf bug); conditions: crop Rice; rate 50 ppm (the 1st table r3); field plots, spray
Procedure: as §1

[6] = tested on: Cletus trigonus (Slender rice bug); conditions: crop Rice; rate 50 ppm (the 1st table r14); field plots, spray
Procedure: as §1

[7] = tested on: Nezara antennata (Common green stink bug); conditions: crop Rice; rate 300 ppm (the 1st table r6); field plots, spray
Procedure: as §1

[8] = tested on: Lagynotomus elongatus (Brown rice stink bug); conditions: crop Rice; rate 150 ppm (the 1st table r10); field plots, spray
Procedure: as §1

[9] = tested on: Euschistus spp (Stink bug spp.); conditions: crop Rice; rate 300 ppm (the 1st table r12); field plots, spray
Procedure: as §1

[10] = tested on: Lygus hesperus (Western plant bug); conditions: crop Alfalfa; rate 100 ppm (the 1st table r8); field plots, spray
Procedure: as §1, with “Host plants (such as rice, wheat, and cabbage) were treated with 50, 150 or 300 ppm of a compound of formula I.” left out

Measured: control

CCNC(=NNc1c(Cl)cc(C(F)(F)F)cc1Cl)C1(C)CC1(Cl)Cl (stereo not drawn) [N-ethyl-2,2-dichloro-1-methylcyclopropane-carboxamide, 2-(2,6-dichloro-α,α,α-trifluoro-p-tolyl)hydrazone]
over 75%: all assays above
